Drawing on patent publication US20230250060A1 (IFM Due, Inc., priority 2022, published 2023), this text covers EC50 for 31 compounds.

The experiment has as its target T1, STING (Homo sapiens, UniProt Q86WV6, G230A/H232R/R293Q/R71H).
T1 construct: host or cells: THP1-Dual KO-IFNAR2 cells
Put plainly: STING reporter assay (luciferase) in THP1-Dual KO-IFNAR2 cells stimulated with 2′3′cGAMP. The settings on record: 2′3′cGAMP 15 μM final, 24 h, luciferase reporter activity, read-out: Pharmaron, THP1_IFNAR2 STING 24 h Luci Normalized: GeoMean EC50. In kind it is cell-based. The gist of the method:
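THP1-Dual KO-IFNAR2 cells (2×10E6 cells/mL) exposed to compounds at 0.0017-100 μM final and stimulated with 2′3′cGAMP (15 μM final) delivered via Lipofectamine 2000. After 24 h at 37° C., secreted luciferase in supernatant read with QUANTI-Luc Plus; EC50 derived from luminescence.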

T1 sequence (Q86WV6 whole entry R71H/G230A/H232R/R293Q): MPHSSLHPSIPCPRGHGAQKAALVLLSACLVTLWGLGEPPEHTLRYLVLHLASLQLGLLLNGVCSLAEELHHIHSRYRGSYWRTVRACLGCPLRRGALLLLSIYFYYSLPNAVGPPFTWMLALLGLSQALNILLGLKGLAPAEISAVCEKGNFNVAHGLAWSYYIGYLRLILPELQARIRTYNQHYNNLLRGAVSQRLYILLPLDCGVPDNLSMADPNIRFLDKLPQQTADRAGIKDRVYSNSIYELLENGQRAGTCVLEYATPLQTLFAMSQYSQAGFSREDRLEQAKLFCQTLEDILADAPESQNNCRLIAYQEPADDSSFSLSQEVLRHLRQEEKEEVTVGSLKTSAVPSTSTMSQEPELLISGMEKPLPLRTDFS

As to `O=C(Nc1c[nH]c2ccc(CCOc3ccc(C(F)(F)F)cc3)cc12)c1cccnc1` [Compound 195, N-(5-(2-(4-(trifluoromethyl)phenoxy)ethyl)-1H-indol-3-yl)nicotinamide], the EC50 lay in the range of 200 to 1000 nM.

As to `O=C(Nc1c[nH]c2ccc(CCOc3ccc(C(F)(F)F)cc3)cc12)c1ccccn1` [Compound 196, N-(5-(2-(4-(trifluoromethyl)phenoxy)ethyl)-1H-indol-3-yl)picolinamide], the EC50 lay within 1000 to 5000 nM.

On to `O=C(CC1CC1)Nc1c[nH]c2ccc(CCOc3ccc(C(F)(F)F)cc3)cc12` [Compound 197, 2-cyclopropyl-N-(5-(2-(4-(trifluoromethyl)phenoxy)ethyl)-1H-indol-3-yl)acetamide], for which the EC50 lay in the range of 200 to 1000 nM.

Consider `O=C(Nc1c[nH]c2ccc(CCOc3ccc(C(F)(F)F)cc3)cc12)C1CC2(CC2)C1` [Compound 198, N-(5-(2-(4-(trifluoromethyl)phenoxy)ethyl)-1H-indol-3-yl)spiro[2.3]hexane-5-carboxamide], for which the EC50 was 200 to 1000 nM.

Turning to `CC12CC(C(=O)Nc3c[nH]c4ccc(CCOc5ccc(C(F)(F)F)cc5)cc34)(C1)C2` [Compound 199, 3-methyl-N-(5-(2-(4-(trifluoromethyl)phenoxy)ethyl)-1H-indol-3-yl)bicyclo[1.1.1]pentane-1-carboxamide], the EC50 was in the range of 200 to 1000 nM.

Take `O=C(Nc1c[nH]c2ccc(CCOc3ccc(C(F)(F)F)cc3)cc12)C1CC12CC2` (stereo not shown) [Compound 200, N-(5-(2-(4-(trifluoromethyl)phenoxy)ethyl)-1H-indol-3-yl)spiro[2.2]pentane-1-carboxamide]: the EC50 lay within 200 to 1000 nM.

For `O=C(Nc1c[nH]c2ccc(CCOc3ccc(C(F)(F)F)cc3)cc12)c1nccs1` [Compound 201, N-(5-(2-(4-(trifluoromethyl)phenoxy)ethyl)-1H-indol-3-yl)thiazole-2-carboxamide], the EC50 lay in the range of 200 to 1000 nM.

As to `O=C(Nc1c[nH]c2ccc(CCOc3ccc(C(F)(F)F)cc3)cc12)c1cscn1` [Compound 202, N-(5-(2-(4-(trifluoromethyl)phenoxy)ethyl)-1H-indol-3-yl)thiazole-4-carboxamide], the EC50 lay within 200 to 1000 nM.

Take `Cn1nccc1C(=O)Nc1c[nH]c2ccc(OCCc3ccc(C(F)(F)F)cc3)cc12` [Compound 203, 1-methyl-N-(5-(4-(trifluoromethyl)phenethoxy)-1H-indol-3-yl)-1H-pyrazole-5-carboxamide]: the EC50 fell in the range of 200 to 1000 nM.

As for `O=C(Nc1c[nH]c2ccc(O[C@H]3C[C@@H](c4ccc(C(F)(F)F)cc4)C3)cc12)C12CC(O)(C1)C2` [Compound 204, 3-hydroxy-N-(5-(cis-3-(4-(trifluoromethyl)phenyl)cyclobutoxy)-1H-indol-3 yl)bicyclo[1.1.1]pentane-1-carboxamide], the EC50 was in the range of 1000 to 5000 nM.

Turning to `CC1(C(=O)Nc2c[nH]c3ccc(OCC[C@@H]4C[C@@H]5CN(CC(F)(F)F)C[C@@H]5C4)cc23)CC2(COC2)C1` [Compound 205, 6-methyl-N-(5-(2-((3aR,5r,6aS)-2-(2,2,2-trifluoroethyl)octahydrocyclopenta[c]pyrrol-5-yl)ethoxy)-1H-indol-3-yl)-2-oxaspiro[3.3]heptane-6-carboxamide], the EC50 lay within 200 to 1000 nM.

As for `O=C(Nc1c[nH]c2ccc(OCC[C@@H]3C[C@@H]4CN(CC(F)(F)F)C[C@@H]4C3)cc12)C1CC2(COC2)C1` [Compound 206, N-(5-(2-((3aR,5r,6aS)-2-(2,2,2-trifluoroethyl)octahydrocyclopenta[c]pyrrol-5-yl)ethoxy)-1H-indol-3-yl)-2-oxaspiro[3.3]heptane-6-carboxamide], the EC50 lay within 200 to 1000 nM.

For the compound `O=C(Nc1c[nH]c2ccc(O[C@H]3C[C@H](c4ccc(C(F)(F)F)cc4)C3)cc12)C1C2COCC21` (stereo partly drawn) [Compound 207, N-(5-(trans-3-(4-(trifluoromethyl)phenyl)cyclobutoxy)-1H-indol-3-yl)-3-oxabicyclo[3.1.0]hexane-6-carboxamide], the EC50 was 200 to 1000 nM.

Take `O=C(Nc1c[nH]c2ccc(OCC[C@@H]3C[C@@H]4CN(CC(F)(F)F)C[C@@H]4C3)cc12)C1CC2C(C1)C2(F)F` (stereo partly drawn) [Compound 208, 6,6-difluoro-N-(5-(2-((3aR,5r,6aS)-2-(2,2,2-trifluoroethyl)octahydrocyclopenta[c]pyrrol-5-yl)ethoxy)-1H-indol-3-yl)bicyclo[3.1.0]hexane-3-carboxamide]: the EC50 lay within 200 to 1000 nM.

Consider `O=C(Nc1c[nH]c2ccc(OCC[C@@H]3C[C@@H]4CN(CC(F)(F)F)C[C@@H]4C3)cc12)C1C2COCC21` (stereo partly drawn) [Compound 210, N-(5-(2-((3aR,5r,6aS)-2-(2,2,2-trifluoroethyl)octahydrocyclopenta[c]pyrrol-5-yl)ethoxy)-1H-indol-3-yl)-3-oxabicyclo[3.1.0]hexane-6-carboxamide], for which the EC50 was in the range of 200 to 1000 nM.

Regarding `O=C(Nc1c[nH]c2ccc(O[C@H]3C[C@H](c4ccc(C(F)(F)F)cc4)C3)cc12)C1CC2(COC2)C1` [Compound 211, N-{5-[(1R,3R)-3-[4-(trifluoromethyl)phenyl]cyclobutoxy]-1H-indol-3-yl}-2-oxaspiro[3.3]heptane-6-carboxamide], the EC50 is 40 to 200 nM.

For `O=C(Nc1c[nH]c2ccc(O[C@H]3C[C@H](c4ccc(C(F)(F)F)cc4)C3)cc12)C12CC(C1)C2` [Compound 212, N-{5-[(1R,3R)-3-[4-(trifluoromethyl)phenyl]cyclobutoxy]-1H-indol-3-yl}bicyclo[1.1.1]pentane-1-carboxamide], the EC50 lay within 40 to 200 nM.

Take `O=C(Nc1c[nH]c2ccc(O[C@H]3C[C@H](c4ccc(C(F)(F)F)nc4)C3)cc12)c1ccc(C(F)(F)F)cc1` [Compound 213, 4-(trifluoromethyl)-N-(5-(trans-3-(6-(trifluoromethyl)pyridin-3-yl)cyclobutoxy)-1H-indol-3-yl)benzamide]: the EC50 is 200 to 1000 nM.

Consider `O=C(Nc1c[nH]c2ccc(O[C@H]3C[C@@H](c4ccc(C(F)(F)F)nc4)C3)cc12)c1ccc(C(F)(F)F)cc1` [Compound 214, 4-(trifluoromethyl)-N-(5-(cis-3-(6-(trifluoromethyl)pyridin-3-yl)cyclobutoxy)-1H-indol-3-yl)benzamide], for which the EC50 is 40 to 200 nM.

In the case of `O=C(Nc1c[nH]c2ccc(O[C@H]3C[C@H](c4ccc(C(F)(F)F)nc4)C3)cc12)c1ccccc1` [Compound 215, N-(5-(trans-3-(6-(trifluoromethyl)pyridin-3-yl)cyclobutoxy)-1H-indol-3-yl)benzamide], the EC50 lay within 200 to 1000 nM.

On to `O=C(Nc1c[nH]c2ccc(O[C@H]3C[C@@H](c4ccc(C(F)(F)F)nc4)C3)cc12)c1ccccc1` [Compound 216, N-(5-(cis-3-(6-(trifluoromethyl)pyridin-3-yl)cyclobutoxy)-1H-indol-3-yl)benzamide], for which the EC50 is 40 to 200 nM.

In the case of `Cn1cc(C(=O)Nc2c[nH]c3ccc(O[C@H]4C[C@@H](c5ccc(C(F)(F)F)nc5)C4)cc23)nn1` [Compound 217, 1-methyl-N-(5-(cis-3-(6-(trifluoromethyl)pyridin-3-yl)cyclobutoxy)-1H-indol-3-yl)-1H-1,2,3-triazole-4-carboxamide], the EC50 fell in the range of 200 to 1000 nM.

Take `O=C(Nc1c[nH]c2ccc(OCc3ccc(C(F)(F)F)cc3)cc12)c1ccccc1` [Compound 218, N-(5-((4-(trifluoromethyl)benzyl)oxy)-1H-indol-3-yl)benzamide]: the EC50 was 200 to 1000 nM.

For the compound `Cn1cc(C(=O)Nc2c[nH]c3ccc(O[C@H]4C[C@H](c5ccc(C(F)(F)F)nc5)C4)cc23)nn1` [Compound 219, 1-methyl-N-(5-(trans-3-(6-(trifluoromethyl)pyridin-3-yl)cyclobutoxy)-1H-indol-3-yl)-1H-1,2,3-triazole-4-carboxamide], the EC50 is 200 to 1000 nM.

`Cn1ccnc1C(=O)Nc1c[nH]c2ccc(O[C@H]3C[C@H](c4ccc(C(F)(F)F)cc4)C3)cc12` [Compound 220, 1-methyl-N-{5-[(1R,3R)-3-[4-(trifluoromethyl)phenyl]cyclobutoxy]-1H-indol-3-yl}-1H-imidazole-2-carboxamide]: the EC50 lay within 200 to 1000 nM.

Regarding `O=C(Nc1c[nH]c2ccc(OCc3ccc(C(F)(F)F)cc3)cc12)C1CC2(CC2)C1` [Compound 221, N-(5-{[4-(trifluoromethyl)phenyl]methoxy}-1H-indol-3-yl)spiro[2.3]hexane-5-carboxamide], the EC50 was 200 to 1000 nM.

Take `O=C(Nc1c[nH]c2ccc(OCC[C@@H]3C[C@@H]4CN(CC(F)(F)F)C[C@@H]4C3)cc12)C1CC2(CC2)C1` [Compound 222, N-(5-{2-[(3aR,5R,6aS)-2-(2,2,2-trifluoroethyl)octahydrocyclopenta[c]pyrrol-5-yl]ethoxy}-1H-indol-3-yl)spiro[2.3]hexane-5-carboxamide]: the EC50 lay in the range of 200 to 1000 nM.

Take `O=C(Nc1c[nH]c2ccc(OCC[C@@H]3C[C@@H]4CN(CC(F)(F)F)C[C@@H]4C3)cc12)C1CC12CCC2` (stereo partly drawn) [Compound 223, N-(5-(2-((3aR,5R,6aS)-2-(2,2,2-trifluoroethyl)octahydrocyclopenta [c]pyrrol-5-yl)ethoxy)-1H-indol-3-yl)spiro[2.3]hexane-1-carboxamide]: the EC50 fell in the range of 200 to 1000 nM.

On to `O=C(Nc1c[nH]c2ccc(OCC[C@@H]3C[C@@H]4CN(CC(F)(F)F)C[C@@H]4C3)cc12)c1ccccc1` [Compound 224, N-(5-(2-((3aR,5r,6aS)-2-(2,2,2-trifluoroethyl)octahydrocyclopenta[c]pyrrol-5-yl)ethoxy)-1H-indol-3-yl)benzamide], for which the EC50 lay within 200 to 1000 nM.

As to `O=C(Nc1c[nH]c2ccc(O[C@H]3C[C@H](c4ccc(C(F)(F)F)cc4)C3)cc12)c1ccncc1` [Compound 225, N-{5-[(1R,3R)-3-[4-(trifluoromethyl)phenyl]cyclobutoxy]-1H-indol-3-yl}pyridine-4-carboxamide], the EC50 lay in the range of 200 to 1000 nM.

On to `O=C(Nc1c[nH]c2ccc(O[C@H]3C[C@H](c4ccc(C(F)(F)F)cc4)C3)cc12)c1ccn[nH]1` [Compound 226, N-{5-[(1R,3R)-3-[4-(trifluoromethyl)phenyl]cyclobutoxy]-1H-indol-3-yl}-1H-pyrazole-5-carboxamide], for which the EC50 was in the range of 40 to 200 nM.
